Laboratory results as given in ChEMBL document CHEMBL2203097, “7-Phenyl-pyrido[2,3-d]pyrimidine-2,4-diamines: novel and highly selective protein tyrosine phosphatase 1B inhibitors” (Bioorg Med Chem Lett, 2012).
pIC50: −log10 of the molar value. Activity calls are given as the source filed them. The calls are words filed in the database; no cut-off is given here.

Legend:
[1] = biological target: T1, Tyrosine-protein phosphatase non-receptor type 1 (Homo sapiens, UniProt P18031); assay: Inhibition of human PTP1B (1 to 321 amino acid residues) expressed in Escherichia coli using TRDI(pY)E as substrate incubated for 15 mins prior to substrate addition measured after 20 mins by malachite green staining-based colorimetric assay
T1 sequence (P18031 whole entry): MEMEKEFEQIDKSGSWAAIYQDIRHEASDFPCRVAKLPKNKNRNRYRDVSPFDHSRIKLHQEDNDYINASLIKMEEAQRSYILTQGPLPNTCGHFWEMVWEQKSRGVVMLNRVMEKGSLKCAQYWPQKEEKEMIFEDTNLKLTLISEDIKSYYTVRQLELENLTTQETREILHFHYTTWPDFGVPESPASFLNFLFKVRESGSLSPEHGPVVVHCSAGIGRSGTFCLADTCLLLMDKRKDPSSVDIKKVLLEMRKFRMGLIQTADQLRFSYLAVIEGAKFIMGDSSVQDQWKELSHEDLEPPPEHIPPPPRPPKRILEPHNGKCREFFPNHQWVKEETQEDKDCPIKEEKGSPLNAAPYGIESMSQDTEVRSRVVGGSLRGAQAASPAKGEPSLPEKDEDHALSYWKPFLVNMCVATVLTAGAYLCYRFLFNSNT

[2] = species: Homo sapiens; assay: Selectivity ratio of IC50 for PTPgamma to IC50 for human PTP1B (1 to 321 amino acid residues)
[3] = AUC in C57 mouse at 50 mg/kg, po; type: ADME, organism-based; set-up: dose 50 mg/kg, route oral; conditions: plasma
[4] = Oral bioavailability in C57 mouse at 50 mg/kg; type: ADME, organism-based; conditions: in vivo
[5] = species: Homo sapiens; assay: Selectivity ratio of IC50 for SHP2 to IC50 for human PTP1B (1 to 321 amino acid residues)
[6] = biological target: T2, Tyrosine-protein phosphatase non-receptor type 1 (Homo sapiens) (UniProt P18031); conditions: 0.29 to 3.3 uM
T2 sequence (whole entry): T1 sequence (P18031 whole entry)
Description: Uncompetitive inhibition of human PTP1B (1 to 321 amino acid residues) expressed in Escherichia coli using DiFMUP as substrate at 0.29 to 3.3 uM by Lineweaver-Burke plot analysis

[7] = species: Homo sapiens; assay: Selectivity ratio of IC50 for PTPepsilon to IC50 for human PTP1B (1 to 321 amino acid residues)
[8] = AUC in C57 mouse at 5 mg/kg, iv; type: ADME, organism-based; set-up: dose 5 mg/kg, route intravenous; conditions: plasma
[9] = species: Homo sapiens; assay: Selectivity ratio of IC50 for HCP to IC50 for human PTP1B (1 to 321 amino acid residues)
[10] = species: Homo sapiens; assay: Selectivity ratio of IC50 for CD45 to IC50 for human PTP1B (1 to 321 amino acid residues)
[11] = species: Homo sapiens; assay: Selectivity ratio of IC50 for TCPTP to IC50 for human PTP1B (1 to 321 amino acid residues)
[12] = species: Homo sapiens; assay: Selectivity ratio of IC50 for YOP to IC50 for human PTP1B (1 to 321 amino acid residues)
[13] = Half life in C57 mouse at 50 mg/kg, po; type: ADME, organism-based; set-up: dose 50 mg/kg, route oral; conditions: in vivo
[14] = Cmax in C57 mouse at 50 mg/kg, po; type: ADME, organism-based; set-up: dose 50 mg/kg, route oral; conditions: in vivo
[15] = species: Homo sapiens; assay: Selectivity ratio of IC50 for PTPalpha to IC50 for human PTP1B (1 to 321 amino acid residues)
[16] = species: Homo sapiens; assay: Selectivity ratio of IC50 for LAR to IC50 for human PTP1B (1 to 321 amino acid residues)
[17] = Volume of distribution in C57 mouse at 5 mg/kg, iv; type: ADME, organism-based; set-up: dose 5 mg/kg, route intravenous; conditions: in vivo
[18] = Clearance in C57 mouse at 5 mg/kg, iv; type: ADME, organism-based; set-up: dose 5 mg/kg, route intravenous; conditions: in vivo
[19] = species: Homo sapiens; assay: Selectivity ratio of IC50 for PTPbeta to IC50 for human PTP1B (1 to 321 amino acid residues)
[20] = AUC in C57 mouse at 10 mg/kg, iv; type: ADME, organism-based; set-up: dose 10 mg/kg, route intravenous; conditions: plasma
[21] = Clearance in C57 mouse at 10 mg/kg, iv; type: ADME, organism-based; set-up: dose 10 mg/kg, route intravenous; conditions: in vivo
[22] = Volume of distribution in C57 mouse at 10 mg/kg, iv; type: ADME, organism-based; set-up: dose 10 mg/kg, route intravenous; conditions: in vivo

With `CNc1nc(N)nc2nc(-c3ccccc3C(F)(F)F)c(C)cc12` as the compound, how does the pIC50 [1] read?
The pIC50 was 6.30.

With `CNc1nc(N)nc2nc(-c3ccccc3C(F)(F)F)ccc12` as the compound, how does the Ratio IC50 [2] read?
The Ratio IC50 was greater than 100.

What about the AUC [3] of the same compound?
The AUC was 8990 ng·h/mL.

What about the bioavailability [4] of the same compound?
Its bioavailability is 66%.

And the Ratio IC50 [5]?
Its Ratio IC50 is greater than 100.

What about the inhibition [6] of the same compound?
The inhibition was “Active”.

What about the pIC50 [1] of the same compound?
The pIC50 was 6.32.

What about the Ratio IC50 [7] of the same compound?
Its Ratio IC50 is greater than 100.

What about the AUC [8] of the same compound?
Its AUC is 1370 ng·h/mL.

And the Ratio IC50 [9]?
Its Ratio IC50 is greater than 100.

What about the Ratio IC50 [10] of the same compound?
Its Ratio IC50 is greater than 100.

And the Ratio IC50 [11]?
The Ratio IC50 was 2.

What about the Ratio IC50 [12] of the same compound?
Its Ratio IC50 is greater than 100.

And the half-life [13]?
The half-life was 7.2 h.

What about the Cmax [14] of the same compound?
Its Cmax is 3530 ng/mL.

What about the Ratio IC50 [15] of the same compound?
The Ratio IC50 was greater than 100.

What about the Ratio IC50 [16] of the same compound?
Its Ratio IC50 is greater than 100.

And the Vd [17]?
Its Vd is 1.8 L/kg.

And the clearance [18]?
Its clearance is 61 mL/min/kg.

What about the Ratio IC50 [19] of the same compound?
The Ratio IC50 was greater than 100.

With `CNc1nc(N)nc2nc(-c3ccc(Cl)cc3Cl)ccc12` as the compound, how does the pIC50 [1] read?
The pIC50 was 6.21.

With `CNc1nc(N)nc2nc(-c3c(N4CCCC4)cccc3C(F)(F)F)ccc12` as the compound, how does the pIC50 [1] read?
The pIC50 was 6.37.

With `CNc1nc(N)nc2nc(-c3ccccc3C(F)(F)F)c(S(C)(=O)=O)cc12` as the compound, how does the pIC50 [1] read?
The pIC50 was 6.00.

With `CNc1nc(N)nc2nc(-c3c(Cl)cccc3N3CCCC3)ccc12` as the compound, how does the pIC50 [1] read?
The pIC50 was 6.09.

With `CNc1nc(N)nc2nc(-c3c(F)cccc3C(F)(F)F)ccc12` as the compound, how does the pIC50 [1] read?
Its pIC50 is 6.59.

With `CNc1nc(N)nc2nc(-c3ccccc3C(=O)O)ccc12` as the compound, how does the pIC50 [1] read?
Its pIC50 is 5.62.

With `CNc1nc(N)nc2nc(-c3c(Oc4ccccc4)cccc3C(F)(F)F)ccc12` as the compound, how does the AUC [20] read?
The AUC was 6970 ng·h/mL.

And the Ratio IC50 [2]?
The Ratio IC50 was greater than 100.

What about the AUC [3] of the same compound?
Its AUC is 11000 ng·h/mL.

What about the bioavailability [4] of the same compound?
Its bioavailability is 32%.

What about the Ratio IC50 [5] of the same compound?
Its Ratio IC50 is greater than 100.

What about the pIC50 [1] of the same compound?
The pIC50 was 6.70.

And the Ratio IC50 [7]?
The Ratio IC50 was greater than 100.

And the Ratio IC50 [9]?
The Ratio IC50 was greater than 100.

What about the Ratio IC50 [10] of the same compound?
Its Ratio IC50 is greater than 100.

And the Ratio IC50 [11]?
Its Ratio IC50 is 2.

And the Ratio IC50 [12]?
Its Ratio IC50 is greater than 100.

What about the half-life [13] of the same compound?
Its half-life is 1.3 h.

What about the clearance [21] of the same compound?
Its clearance is 24 mL/min/kg.

What about the Cmax [14] of the same compound?
Its Cmax is 2200 ng/mL.

What about the Ratio IC50 [15] of the same compound?
Its Ratio IC50 is greater than 100.

What about the Ratio IC50 [16] of the same compound?
Its Ratio IC50 is greater than 100.

And the Vd [22]?
Its Vd is 0.9 L/kg.

What about the Ratio IC50 [19] of the same compound?
Its Ratio IC50 is greater than 100.

With `CNc1nc(N)nc2nc(-c3cccc(Cl)c3Cl)ccc12` as the compound, how does the pIC50 [1] read?
The pIC50 was 5.93.

With `CNc1nc(N)nc2nc(-c3c(N4CCCCC4)cccc3C(F)(F)F)ccc12` as the compound, how does the pIC50 [1] read?
The pIC50 was 5.87.

With `CNc1nc(N)nc2nc(-c3c(OC)cccc3C(F)(F)F)ccc12` as the compound, how does the pIC50 [1] read?
Its pIC50 is 6.25.

With `CCCNc1nc(N)nc2nc(-c3ccccc3C(F)(F)F)ccc12` as the compound, how does the pIC50 [1] read?
Its pIC50 is 5.61.

With `CNc1nc(N)nc2nc(-c3c(N4CCOCC4)cccc3C(F)(F)F)ccc12` as the compound, how does the pIC50 [1] read?
Its pIC50 is 5.94.

With `CNc1nc(N)nc2nc(-c3c(F)cccc3N3CCCC3)ccc12` as the compound, how does the pIC50 [1] read?
Its pIC50 is 6.21.

With `Nc1nc(NCCO)c2ccc(-c3ccccc3C(F)(F)F)nc2n1` as the compound, how does the pIC50 [1] read?
The pIC50 was 5.73.

With `CCCc1cc2c(NC)nc(N)nc2nc1-c1ccccc1C(F)(F)F` as the compound, how does the pIC50 [1] read?
Its pIC50 is 6.57.

With `CNc1nc(N)nc2nc(-c3cc(Cl)ccc3Cl)ccc12` as the compound, how does the pIC50 [1] read?
The pIC50 was 6.02.

With `CNc1nc(N)nc2nc(-c3ccccc3Br)ccc12` as the compound, how does the pIC50 [1] read?
The pIC50 was 6.28.

With `CNc1nc(N)nc2nc(-c3c(SC)cccc3C(F)(F)F)ccc12` as the compound, how does the pIC50 [1] read?
The pIC50 was 6.46.

With `CNc1nc(N)nc2nc(-c3ccccc3Cl)ccc12` as the compound, how does the pIC50 [1] read?
Its pIC50 is 5.94.

With `CNc1nc(N)nc2nc(-c3ccccc3[N+](=O)[O-])ccc12` as the compound, how does the pIC50 [1] read?
The pIC50 was 5.86.

With `CNc1nc(N)nc2nc(-c3ccccc3OC)ccc12` as the compound, how does the pIC50 [1] read?
Its pIC50 is 5.55.

With `CCNc1nc(N)nc2nc(-c3ccccc3C(F)(F)F)ccc12` as the compound, how does the pIC50 [1] read?
Its pIC50 is 5.87.
